Measured values taken from PubChem BioAssay AID202 (DTP/NCI, 2004).
Where “and” joins values, the source holds several entries; their conditions need not be identical. Equal values may be shown once.

System: HT29 xenograft, nude mice, s.c., tumor weight T/C%
Experiment: NCI In Vivo Anticancer Drug Screen. Data for tumor model HT29;CX-1 Human Adenocarcinoma (MER+) (subcutaneous) in NU/NU Swiss (nude) mice
Settings: endpoint: optimum tumor weight change, higher = larger tumour
Protocol: The antitumor activity of compounds was measured in mice bearing transplantable tumors. Survival or tumor size were measured and the results are expressed as the measurement made in the treated group (T) divided by the measurement made in the vehicle treated control group (C). The tumor model used in this assay is HT29;CX-1 Human Adenocarcinoma (MER+) (subcutaneous) in NU/NU Swiss (nude) mice

[1] = dose: 50.0 mg/kg/injection, schedule: Q04DX003 (ip), vehicle: saline
[2] = dose: 100.0 mg/kg/injection, schedule: Q04DX003 (ip), vehicle: saline
[3] = dose: 200.0 mg/kg/injection, schedule: Q04DX003 (ip), vehicle: saline
[4] = dose: 100.0 mg/kg/injection, schedule: Q04DX003 (ip), vehicle: saline with Tween-80
[5] = dose: 200.0 mg/kg/injection, schedule: Q04DX003 (ip), vehicle: saline with Tween-80
[6] = dose: 25.0 mg/kg/injection, schedule: Q04DX003 (ip), vehicle: Klucel (hydroxypropylcellulose) (HPC)
[7] = dose: 50.0 mg/kg/injection, schedule: Q04DX003 (ip), vehicle: Klucel (hydroxypropylcellulose) (HPC)
[8] = dose: 100.0 mg/kg/injection, schedule: Q04DX003 (ip), vehicle: Klucel (hydroxypropylcellulose) (HPC)
[9] = dose: 200.0 mg/kg/injection, schedule: Q04DX003 (ip), vehicle: Klucel (hydroxypropylcellulose) (HPC)
[10] = dose: 100.0 mg/kg/injection, schedule: Q04DX003 (ip), vehicle: suspension in saline
[11] = dose: 200.0 mg/kg/injection, schedule: Q04DX003 (ip), vehicle: suspension in saline
[12] = dose: 400.0 mg/kg/injection, schedule: Q04DX003 (ip), vehicle: suspension in saline
[13] = dose: 800.0 mg/kg/injection, schedule: Q04DX003 (ip), vehicle: suspension in saline
[14] = dose: 1.5 mg/kg/injection, schedule: Q04DX003 (ip), vehicle: saline
[15] = dose: 6.25 mg/kg/injection, schedule: Q04DX003 (ip), vehicle: saline

## C=CC(=O)NCNC(=O)C=C
[1]
  T/C: 78 % of control
[2]
  T/C: 65 % of control
[3]
  T/C: 60 % of control

## COc1cccc2c1C(=O)c1c(O)c3c(c(O)c1C2=O)C[C@@](O)(C(=O)CO)C[C@@H]3OC1CC(N)CC(C)O1 (stereo partly drawn)
dose: 0.37 mg/kg/injection, schedule: Q04DX003 (ip), vehicle: water
  T/C: 63 % of control
dose: 0.75 mg/kg/injection, schedule: Q04DX003 (ip), vehicle: water
  T/C: 54 % of control
dose: 1.5 mg/kg/injection, schedule: Q04DX003 (ip), vehicle: water
  T/C: 39 % of control

## CC(=O)OCC1OC(n2cc(CBr)nn2)C(OC(C)=O)C(OC(C)=O)C1OC(C)=O (stereo not drawn)
dose: 50.0 mg/kg/injection, schedule: Q04DX003 (ip), vehicle: saline with Tween-80
  T/C: 78 % of control
[4]
  T/C: 92 % of control
[5]
  T/C: 69 % of control

## COc1cccc2c1C(=O)c1c(O)c3c(c(O)c1C2=O)C[C@@](O)(C(C)=O)C[C@@H]3OC1CC(N)C(O)C(C)O1 (stereo partly drawn)
dose: 1.0 mg/kg/injection, schedule: Q04DX003 (ip), vehicle: saline
  T/C: 71 % of control
dose: 2.0 mg/kg/injection, schedule: Q04DX003 (ip), vehicle: saline
  T/C: 113 % of control

## CN(N=O)C(=O)N[C@@H](C=O)[C@@H](O)[C@H](O)[C@H](O)CO
[2]
  T/C: 82 % of control
[3]
  T/C: 98 % of control

## CCc1ccccc1N1CCN(C(=O)c2cc(OC)c(OC)c(OC)c2)CC1
[6]
  T/C: 108 % of control
[7]
  T/C: 63 % of control
[8]
  T/C: 75 % of control
[9]
  T/C: 82 % of control

## CN(C)c1nc(N(C)C)nc(N(C)C)n1
dose: 60.0 mg/kg/injection, schedule: Q07DX005 (ip), vehicle: Klucel (hydroxypropylcellulose) (HPC)
  T/C: 91 % of control and 114 % of control
dose: 120.0 mg/kg/injection, schedule: Q01DX005 (ip), vehicle: Klucel (hydroxypropylcellulose) (HPC)
  T/C: 38 % of control and 47 % of control
dose: 120.0 mg/kg/injection, schedule: Q07DX005 (ip), vehicle: Klucel (hydroxypropylcellulose) (HPC)
  T/C: 72 % of control and 78 % of control
dose: 240.0 mg/kg/injection, schedule: Q04DX005 (ip), vehicle: Klucel (hydroxypropylcellulose) (HPC)
  T/C: 27 % of control and 38 % of control
dose: 240.0 mg/kg/injection, schedule: Q07DX005 (ip), vehicle: Klucel (hydroxypropylcellulose) (HPC)
  T/C: 37 % of control

## CN1CCN(CCCN2c3ccccc3Sc3ccc(C(F)(F)F)cc32)CC1
[1]
  T/C: 79 % of control

## Cc1c(N)nc([C@H](CC(N)=O)NC[C@H](N)C(N)=O)nc1C(=O)N[C@H](C(=O)N[C@H](C)[C@@H](O)CC(=O)N[C@H](C(=O)NC(O[C@@H]1O[C@@H](C)[C@@H](N)[C@@H](O)[C@H]1O)C(O)c1nc(-c2nc(C(=O)NCCCCN)cs2)cs1)[C@@H](C)O)[C@@H](O[C@@H]1O[C@@H](CO)[C@@H](O)[C@H](O)[C@@H]1O[C@H]1O[C@H](CO)[C@@H](O)[C@H](OC(N)=O)[C@@H]1O)c1c[nH]cn1 (stereo partly drawn)
dose: 4.0 mg/kg/injection, schedule: Q04DX003 (ip), vehicle: saline
  T/C: 47 % of control
dose: 8.0 mg/kg/injection, schedule: Q04DX003 (ip), vehicle: saline
  T/C: 27 % of control
dose: 16.0 mg/kg/injection, schedule: Q04DX003 (ip), vehicle: saline
  T/C: 7 % of control

## CC(C)=CCNc1ncnc2c1ncn2C1OC(CO)C(O)C1O (stereo not drawn)
[10]
  T/C: 106 % of control
[11]
  T/C: 77 % of control
[12]
  T/C: 65 % of control
[13]
  T/C: 64 % of control

## CN(C)N=Nc1ccccc1
[6]
  T/C: 64 % of control
[7]
  T/C: 83 % of control

## CSc1cc(=O)n2c3ccccc3c3ccnc1c32
dose: 20.0 mg/kg/injection, schedule: Q04DX003 (ip), vehicle: saline with Tween-80
  T/C: 101 % of control
dose: 160.0 mg/kg/injection, schedule: Q04DX003 (ip), vehicle: saline with Tween-80
  T/C: 89 % of control and 99 % of control
dose: 320.0 mg/kg/injection, schedule: Q04DX003 (ip), vehicle: saline with Tween-80
  T/C: 82 % of control
dose: 640.0 mg/kg/injection, schedule: Q04DX003 (ip), vehicle: saline with Tween-80
  T/C: 81 % of control

## Cc1c(N)nc(C(CC(N)=O)NCC(N)C(N)=O)nc1C(=O)NC(C(=O)NC(C)C(O)C(C)C(=O)NC(C(=O)NCCc1nc(-c2nc(C(=O)NCCCNC(C)c3ccccc3)cs2)cs1)C(C)O)C(OC1OC(CO)C(O)C(O)C1OC1OC(CO)C(O)C(OC(N)=O)C1O)c1cnc[nH]1 (stereo not drawn)
dose: 3.75 mg/kg/injection, schedule: Q04DX003 (ip), vehicle: saline
  T/C: 70 % of control

## O=Cc1ccc(O)c(O)c1
[4]
  T/C: 94 % of control

## CCOC(=O)Nc1cc2c(c(N)n1)N=C(CN(C)c1ccccc1)CN2
dose: 12.5 mg/kg/injection, schedule: Q04DX003 (ip), vehicle: Klucel (hydroxypropylcellulose) (HPC)
  T/C: 74 % of control
[6]
  T/C: 116 % of control
[7]
  T/C: 71 % of control
[8]
  T/C: 90 % of control

## C[n+]1c(-c2cccc3ccccc23)c2cc(N)ccc2c2ccccc21
[14]
  T/C: 86 % of control

## COc1cc([C@@H]2c3cc4c(c(O)c3C[C@H]3COC(=O)[C@@H]32)OCO4)cc(OC)c1O
dose: 3.13 mg/kg/injection, schedule: Q04DX003 (ip), vehicle: saline
  T/C: 63 % of control
[15]
  T/C: 53 % of control

## O=C1N(Cl)C(=O)C(c2ccc(Cl)cc2)(c2ccc(Cl)cc2)N1Cl
[4]
  T/C: 103 % of control
[5]
  T/C: 108 % of control

## CC1OC(OC2CC(O)(C(=O)CO)Cc3c(O)c4c(c(O)c32)C(=O)c2ccccc2C4=O)CC(N)C1O (stereo not drawn)
dose: 0.25 mg/kg/injection, schedule: Q04DX003 (ip), vehicle: water
  T/C: 89 % of control

## NC(=S)N/N=C/c1ccc(O)cn1
dose: 150.0 mg/kg/injection, schedule: Q04DX003 (ip), vehicle: saline with Tween-80
  T/C: 63 % of control
dose: 300.0 mg/kg/injection, schedule: Q04DX003 (ip), vehicle: saline with Tween-80
  T/C: 70 % of control
dose: 600.0 mg/kg/injection, schedule: Q04DX003 (ip), vehicle: saline with Tween-80
  T/C: 87 % of control

## Oc1ccc(O)cc1
[1]
  T/C: 173 % of control

## O=C[C@@H](CO)O[C@H](C=O)n1cnc2c(=O)[nH]cnc21
[2]
  T/C: 57 % of control
[3]
  T/C: 85 % of control
dose: 400.0 mg/kg/injection, schedule: Q04DX003 (ip), vehicle: saline
  T/C: 48 % of control

## NC(=O)c1ccc[n+](Cc2c(Cl)cccc2Cl)c1
dose: 48.0 mg/kg/injection, schedule: Q04DX003 (ip), vehicle: saline
  T/C: 122 % of control

## CC(C)CCCCCCCCCCCCC(=O)NCC(=O)NC1C(C)OC(Nc2ncnc3nc[nH]c23)C(O)C1O (stereo not drawn)
dose: 3.13 mg/kg/injection, schedule: Q04DX003 (ip), vehicle: distilled water + Tween-80
  T/C: 88 % of control
dose: 3.13 mg/kg/injection, schedule: Q04DX003 (ip), vehicle: saline with Tween-80
  T/C: 58 % of control
dose: 6.25 mg/kg/injection, schedule: Q04DX003 (ip), vehicle: distilled water + Tween-80
  T/C: 56 % of control and 66 % of control
dose: 6.25 mg/kg/injection, schedule: Q04DX003 (ip), vehicle: saline with Tween-80
  T/C: 52 % of control
dose: 12.5 mg/kg/injection, schedule: Q04DX003 (ip), vehicle: distilled water + Tween-80
  T/C: 55 % of control
dose: 12.5 mg/kg/injection, schedule: Q04DX003 (ip), vehicle: saline with Tween-80
  T/C: 40 % of control
dose: 25.0 mg/kg/injection, schedule: Q04DX003 (ip), vehicle: distilled water + Tween-80
  T/C: 73 % of control

## COC1C(O)CC(OC2CC(OC3CC(O[C@@H]4C(=O)c5c(cc6cc(OC7CC(OC8CC(O)C(O)C(C)O8)C(O)C(C)O7)c(C)c(O)c6c5O)C[C@H]4[C@H](OC)C(=O)[C@@H](O)[C@@H](C)O)OC(C)C3O)OC(C)C2O)OC1C (stereo partly drawn)
[14]
  T/C: 52 % of control

## CS(=O)(=O)OCCN(CCOS(C)(=O)=O)c1ccc(C=Nc2ccc(-c3csc(COc4ccccc4)n3)cc2)cc1
[8]
  T/C: 71 % of control
[9]
  T/C: 70 % of control

## CN(C)N=Nc1cn[nH]c1C(N)=O
[6]
  T/C: 69 % of control
[7]
  T/C: 123 % of control
[8]
  T/C: 79 % of control
[9]
  T/C: 88 % of control

## COc1cccc2c1C(=O)c1c(O)c3c(c(O)c1C2=O)C[C@@](O)(/C(C)=N\O)C[C@@H]3OC1CC(N)C(O)C(C)O1 (stereo partly drawn)
[15]
  T/C: 68 % of control
dose: 12.5 mg/kg/injection, schedule: Q04DX003 (ip), vehicle: saline
  T/C: 63 % of control
dose: 25.0 mg/kg/injection, schedule: Q04DX003 (ip), vehicle: saline
  T/C: 56 % of control

## NC(Cc1ccc(N(CCCl)CCCl)cc1)C(=O)O (stereo not drawn)
dose: 5.0 mg/kg/injection, schedule: Q04DX003 (ip), vehicle: Klucel (hydroxypropylcellulose) (HPC)
  T/C: 73 % of control

## O=c1n[n+]([O-])ccn1C1OC(CO)C(O)C1O (stereo not drawn)
[10]
  T/C: 75 % of control
[11]
  T/C: 71 % of control
[12]
  T/C: 68 % of control
[13]
  T/C: 82 % of control
